These are literature values, as cited in patent publication US20070021304A1, “Non-salt glyphosate herbicide composition and method for preparing the same” (Sinon Corporation, priority 2005, published 2007).

The conditions of this data set: pH 1.9, 20° C.

For `O=C(O)CNCP(=O)(O)O` [Glyphosate], the water solubility entry is recorded as “approximately 10.5 g/L”.
